Structures can show the parent of a compound that is named as a salt.
| SMILES | melting point |
| --- | --- |
| Cn1c(NCc2cccc(OCCC3CCNCC3)c2)nc(-c2ccncc2)cc1=O (as salt: hydrochloride) [Compound 72, 3-methyl-2-[3-(2-piperidin-4-yl-ethoxy)-benzylamino]-6-pyridin-4-yl-3H-pyrimidin-4-one] | 225 to 232 °C |
| CCCCCCCCCNc1nc(-c2ccncc2)cc(=O)n1C [Compound 52, 3-Methyl-2-nonylamino-6-pyridin-4-yl-3H-pyrimidin-4-one] | 113 to 115 °C |
| Cn1c(NCCCCCN)nc(-c2ccncc2)cc1=O (as salt: hydrochloride) [Compound 40, 2-(5-Amino-pentylamino)-3-methyl-6-pyridin-4-yl-3H-pyrimidin-4-one] | 259 to 262 °C |
| CN(C)CCn1c(NCCCc2ccccc2)nc(-c2ccncc2)cc1=O (as salt: hydrochloride) | 212 to 215 °C |
| NCCCCNc1nc(-c2ccncc2)cc(=O)n1Cc1ccccc1 (as salt: hydrochloride) [Compound 90, 2-(4-Amino-butylamino)-3-benzyl-6-pyridin-4-yl-3H-pyrimidin-4-one] | 163 to 168 °C (dec.) |
| O=c1cc(-c2ccncc2)nc(NCCCc2ccccc2)n1CCO [Compound 86, 3-(2-Hydroxy-ethyl)-2-(3-phenyl-propylamino)-6-pyridin-4-yl-3H-pyrimidin-4-one] | 143 to 145 °C |
| CNCc1ccc(CCN(C)c2nc(-c3ccncc3)cc(=O)n2C)cc1 (as salt: hydrochloride) [Compound 75, 3-Methyl-2-{methyl-[2-(4-methylaminomethyl-phenyl)-ethyl]-amino}-6-pyridin-4-yl-3H-pyrimidin-4-one] | 157 to 160 °C |
| CC(C)CCNc1nc(-c2ccncc2)cc(=O)n1C [Compound 55, 3-Methyl-2-(3-methyl-butylamino)-6-pyridin-4-yl-3H-pyrimidin-4-one] | 213 to 217 °C |
| NCCn1c(NCCCc2ccccc2)nc(-c2ccncc2)cc1=O (as salt: hydrochloride) [Compound 84, 3-(2-Amino-ethyl)-2-(3-phenyl-propylamino)-6-pyridin-4-yl-3H-pyrimidin-4-one] | 145 to 148 °C |
| CN(C)CCCOc1cccc(CNc2nc(-c3ccncc3)cc(=O)n2C)c1 [Compound 74, 2-[3-(3-Dimethylamino-propoxy)-benzylamino]-3-methyl-6-pyridin-4-yl-3H-pyrimidin-4-one] | 80 to 82 °C |
| NCCCCCNc1nc(-c2ccncc2)cc(=O)n1CCc1ccccc1 (as salt: hydrochloride) [Compound 43, 2-(5-Amino-pentylamino)-3-phenethyl-6-pyridin-4-yl-3H-pyrimidin-4-one] | 235 to 238 °C |
| NCCCCCCNc1nc(-c2ccncc2)cc(=O)n1Cc1ccccc1 (as salt: hydrochloride) | 292 to 298 °C |
| Cn1c(NCCCN2CCCCC2)nc(-c2ccncc2)cc1=O [Compound 67, 3-Methyl-2-(3-piperidin-1-yl-propylamino)-6-pyridin-4-yl-3H-pyrimidin-4-one] | 162 to 163 °C |
| NCCCCNc1nc(-c2ccncc2)cc(=O)n1CCc1ccccc1 (as salt: hydrochloride) [Compound 45, 2-(4-Amino-butylamino)-3-phenethyl-6-pyridin-4-yl-3H-pyrimidin-4-one] | 246 to 248 °C |
| Cn1c(N(CCCN)CCCc2ccccc2)nc(-c2ccncc2)cc1=O (as salt: hydrochloride) [Compound 77, 2-[(3-Amino-propyl)-(3-phenyl-propyl)-amino]-3-methyl-6-pyridin-4-yl-3H-pyrimidin-4-one] | 185 to 189 °C |
| Cn1c(NCCCCCO)nc(-c2ccncc2)cc1=O [Compound 61, 2-(5-Hydroxy-pentylamino)-3-methyl-6-pyridin-4-yl-3H-pyrimidin-4-one] | 164 to 165 °C |
| CCNc1nc(-c2ccncc2)cc(=O)n1C (as salt: oxalate) [Compound 36, 2-(ethylamino)-3-methyl-6-pyridin-4-ylpyrimidin-4(3H)-one] | 239 to 241 °C |
| CCCOCCNc1nc(-c2ccncc2)cc(=O)n1C [Compound 57, 3-Methyl-2-(2-propoxy-ethylamino)-6-pyridin-4-yl-3H-pyrimidin-4-one] | 147 to 150 °C |
| CC(=O)OC(CNc1nc(-c2ccncc2)cc(=O)n1C)c1ccccc1 (stereo not shown) [Compound 69, Acetic acid 2-(1-methyl-6-oxo-4-pyridin-4-yl-1 ,6-dihydro-pyrimidin-2-ylamino)-1-phenyl-ethyl ester] | 81 to 84 °C |
| NCCCCNc1nc(-c2ccncc2)cc(=O)n1CCCc1ccccc1 (as salt: hydrochloride) [Compound 41, 2-(4-Amino-butylamino)-3-(3-phenyl-propyl)-6-pyridin-4-yl-3H-pyrimidin-4-one] | 134 to 136 °C |
| Cn1c(NCC=Cc2ccccc2)nc(-c2ccncc2)cc1=O (as salt: hydrochloride) [Compound 95, 3-Methyl-2-(3-phenyl-allylamino)-6-pyridin-4-yl-3 H-pyrimidin-4-one] | 198 to 200 °C |
| CCCOCCCNc1nc(-c2ccncc2)cc(=O)n1C [Compound 64, 3-Methyl-2-(3-propoxy-propylamino)-6-pyridin-4-yl-3H-pyrimidin-4-one] | 107 to 109 °C |
| NCCCCn1c(NCCCc2ccccc2)nc(-c2ccncc2)cc1=O (as salt: hydrochloride) [Compound 80, 3-(4-Amino-butyl)-2-(3-phenyl-propylamino)-6-pyridin-4-yl-3H-pyrimidin-4-one] | 124 to 127 °C |
| Cn1c(NC2Cc3ccccc3C2)nc(-c2ccncc2)cc1=O [Compound 37, 2-[(indan-2-yl)amino]-3-methyl-6-pyridin-4-ylpyrimidin-4(3H)-one] | 211.5 to 211.8 °C |
| Cn1c(NCCCCO)nc(-c2ccncc2)cc1=O [Compound 62, 2-(4-Hydroxy-butylamino)-3-methyl-6-pyridin-4-yl-3H-pyrimidin-4-one] | 159 to 161 °C |
| Cn1c(NCCCC2CCCCC2)nc(-c2ccncc2)cc1=O [Compound 58, 2-(3-Cyclohexyl-propylamino)-3-methyl-6-pyridin-4-yl-3H-pyrimidin-4-one] | 177 to 180 °C |
| NCCCCCCNc1nc(-c2ccncc2)cc(=O)n1CCc1ccccc1 (as salt: hydrochloride) | 225 to 228 °C |
| NCCCCn1c(NCCc2ccccc2)nc(-c2ccncc2)cc1=O (as salt: hydrochloride) [Compound 89, 3-(4-Amino-butyl)-2-phenethylamino-6-pyridin-4-yl-3H-pyrimidin-4-one] | 170 to 175 °C |
| CCCCCCCCCCNc1nc(-c2ccncc2)cc(=O)n1C (as salt: hydrochloride) [Compound 53, 2-Decylamino-3-methyl-6-pyridin-4-yl-3H-pyrimidin-4-one] | 162 to 164 °C |
| NCCCCCn1c(NCCCc2ccccc2)nc(-c2ccncc2)cc1=O (as salt: hydrochloride) [Compound 79, 3-(5-Amino-pentyl)-2-(3-phenyl-propylamino)-6-pyridin-4-yl-3H-pyrimidin-4-one] | 123 to 126 °C |

Next, values leading:

| melting point | SMILES |
| --- | --- |
| 180.9 to 181.3 °C | COc1ccc(OC)c(CCNc2nc(-c3ccncc3)cc(=O)n2C)c1 [Compound 13, 2-[[2-(2,5-dimethoxyphenyl)ethyl]amino]-3-methyl-6-pyridin-4-ylpyrimidin-4(3H)-one] |
| 98 to 101 °C | Cn1c(NCc2cccc(OCCCO)c2)nc(-c2ccncc2)cc1=O [Compound 71, 2-[3-(3-Hydroxy-propoxy)-benzylamino]-3-methyl-6-pyridin-4-yl-3H-pyrimidin-4-one] |
| 171.7 to 171.9 °C | Cn1c(NCCc2cccs2)nc(-c2ccncc2)cc1=O [Compound 19, 2-[[2-(thiophen-2-yl)ethyl]amino]-3-methyl-6-pyridin-4-ylpyrimidin-4(3H)-one] |
| 158.9 to 159.2 °C | Cn1c(NCCc2cccc(F)c2)nc(-c2ccncc2)cc1=O [Compound 6, 2-[[2-(3-fluorophenyl)ethyl]amino]-3-methyl-6-pyridin-4-ylpyrimidin-4(3H)-one] |
| 242.7 to 243 °C | COc1ccc2[nH]cc(CCNc3nc(-c4ccncc4)cc(=O)n3C)c2c1 [Compound 30, 2-[[2-(5-methoxy-1H-indol-3-yl)ethyl]amino]-3-methyl-6-pyridin-4-ylpyrimidin-4(3H)-one] |
| 102 to 105 °C | Cn1c(NCCNc2ccccc2)nc(-c2ccncc2)cc1=O [Compound 93, 3-Methyl-2-(2-phenylamino-ethylamino)-6-pyridin-4-yl-3H-pyrimidin-4-one] |
| 162.8 to 163 °C | Cn1c(NCCc2cccc(Cl)c2)nc(-c2ccncc2)cc1=O [Compound 18, 2-[[2-(3-chlorophenyl)ethyl]amino]-3-methyl-6-pyridin-4-ylpyrimidin-4(3H)-one] |
| 133 to 135 °C | CCCCCCNc1nc(-c2ccncc2)cc(=O)n1C [Compound 49, 2-Hexylamino-3-methyl-6-pyridin-4-yl-3H-pyrimidin-4-one] |
| 187 to 187.1 °C | COc1ccc(CCNc2nc(-c3ccncc3)cc(=O)n2C)cc1OC [Compound 12, 2-[[2-(3,4-dimethoxyphenyl)ethyl]amino]-3-methyl-6-pyridin-4-ylpyrimidin-4(3H)-one] |
| 193 to 196 °C | Cn1c(NCc2cccc(OCCCN)c2)nc(-c2ccncc2)cc1=O (as salt: hydrochloride) [Compound 26, 2-[[[3-(3-aminopropoxy)phenyl]methyl]amino]-3-methyl-6-pyridin-4-ylpyrimidin-4(3H)-one] |
| 169.7 to 169.8 °C | Cn1c(NCCc2ccc(OCc3ccccc3)cc2)nc(-c2ccncc2)cc1=O [Compound 21, 2-[[2-(4-phenylmethoxyphenyl)ethyl]amino]-3-methyl-6-pyridin-4-ylpyrimidin-4(3H)-one] |
| 217 to 218 °C | Cn1c(NCCc2c[nH]c3ccccc23)nc(-c2ccncc2)cc1=O (as salt: oxalate) [Compound 29, 2-[[2-(1H-indol-3-yl)ethyl]amino]-3-methyl-6-pyridin-4-ylpyrimidin-4(3H)-one] |
| 149.2 to 149.5 °C | COc1ccccc1CCNc1nc(-c2ccncc2)cc(=O)n1C [Compound 4, 2-[[2-(2-methoxyphenyl)ethyl]amino]-3-methyl-6-pyridin-4-ylpyrimidin-4(3H)-one] |

— US7378413B2, “2-amino-3-(alkyl)-pyrimidone derivatives” (Sanofi Aventis, priority 2000, dated 2008)
